Assays:
[1] = tested on: local anesthetic site of the sodium channel in rat brain cortex membranes; experiment: [3H]PD85639 binding assay
Experimental: (§1) The following assays characterize the interaction of the compounds of Formula I with ligand binding sites on voltage-gated sodium channels.
(§2) Frozen tissues were obtained from Pel-Freez Biologicals (Rogers, AR). Tissues were homogenized in 10 volumes of a Tris-sucrose buffer (10 mM Tris-HCl, 250 mM sucrose, pH 7.4 at 4° C.) using 10 strokes with a glass-glass, hand-held homogenizer. The homogenates were filtered through nylon mesh and then centrifuged at 1,000×g for 15 minutes. The pellets were resuspended in a Hepes buffer (50 mM Hepes, 130 mM choline chloride, 5 mM glucose, 5.4 mM KCl, pH 7.4 at 4° C.). The resuspended pellets were centrifuged at 1,000×g for 15 minutes, resuspended in a Hepes buffer (50 mM Hepes, 130 mM choline chloride, 5 mM glucose, 5.4 mM KCl, pH 7.4 at 25° C.) and, frozen at -70° C. until used in binding assays.
Membranes as prepared in Example 10A above were incubated with 3 nM [^3 H]PD 85639 in 250 μl of Hepes buffer (50 mM Hepes, 130 mM choline chloride, 5 mM glucose, 5.4 mM KCl, pH 7.4 at 25° C. with Tris base). Nonspecific binding was defined in the presence of 0.1 mM PD85639. […] Filters were rinsed with 3×1 ml of ice cold 50 mM Tris-HCl (pH 7.4 at 4° C.) and the bound radioactivity was determined by scintillation counting (Packard Top-count).

[2] = tested on: voltage-gated sodium channels ([3H]BTX binding, rat dorsal root ganglion); experiment: [3H]BTX binding assay, rat dorsal root ganglion membranes
Experimental: as §1, §2
(§3) Cell membranes prepared as in Example 10A above were incubated with 16 nM [^3 H]BTX in 250 μl of Hepes buffer (50 mM Hepes, 130 mM choline chloride, 5 mM glucose, 5.4 mM KCl, pH 7.4 at 25° C.). Nonspecific binding was defined in the presence of 1 mM veratridine. Unless otherwise specified, PbTx (0.1 μM) and LqTx (50 μg/ml) were included in the assays. […] Filters were rinsed with 3×1 ml of ice cold 50 mM Tris-HCl (pH 7.4 at 4° C.) and the bound radioactivity was determined by scintillation counting (Packard Top-count).

[3] = tested on: human heart (hH1a) sodium channel; experiment: [14C]Guanidinium ion influx assay, human heart (hH1a) sodium channel in Chinese hamster lung cells; assay type: cell-based
Experimental: (§4) Chinese hamster ovary cells stably expressing the rat brain type IIA sodium channel subunit were maintained in RPMI 1640 with 10% fetal bovine serum and […] G-418. Chinese hamster lung cells stably expressing the human heart (hH1a) sodium channel subunit were maintained in DMEM with 5% fetal bovine serum and 300 μg/ml G-418. Both cells were subcultured and grown to confluence in 24-well plates 2-3 days before each experiment. After the growth medium was removed, the cells were washed with warm buffer (25 mM Hepes-Tris, 135 mM choline chloride, 5.4 mM potassium chloride, 0.98 mM magnesium sulfate, 5.5 mM glucose, and 1 mg/ml BSA, pH 7.4) and incubated in buffer on a 36° C. slide warmer for approximately 10 minutes. Various concentrations of the test compounds or standard sodium channel blockers (10 μl) and then veratridine (100 μM) were added to each well. After the cells were exposed to veratridine for 5 minutes, 5 μM of [^14 C]guanidinium was added, incubated with the radioligand, washed with 4 ml of ice-cold buffer, and dissolved in 0.1N sodium hydroxide. The radioactivity and the protein concentration of each cell lysate were determined by liquid scintillation counting and the protein assay using Pierce BCA reagent.

neuropathic pain models = experiment: Neuropathic pain models / standard assays (summary statements); assay type: in vivo; conditions: vs methylamine and propylamine analogues and isomers thereof
[4] = tested on: mechanical allodynia in rats; experiment: Mechanical allodynia in vivo assay (spinal nerve ligation); set-up: species or system rat
Experimental: This assay determines the effectiveness of compounds in relieving one of the symptoms of neuropathic pain produced by spinal nerve ligation, namely mechanical allodynia. The surgical procedure was performed essentially as described by Kim and Chung, Pain, (1992) 50:355-363. Briefly, the rats were anesthetized with an intraperitoneal dose of pentobarbital sodium (65 mg/kg) with additional doses of anesthetic given as needed. Each animal was then placed in a prone position, a 3 cm lateral incision was made, and the left paraspinal muscles separated from the spinous process at the L4 -S2 level. The L6 transverse process was then removed in order to visually identify the L4 -L6 spinal nerves. The L5 and L6 spinal nerves were then individually isolated and tightly ligated with silk thread. The wound was then closed in layers by silk sutures. Seven to 28 days post-surgery, a calibrated series of eight von Frey filaments were used to assess mechanical allodynia. Animals were housed individually in plexiglass cages with a wire mesh floor. Filaments of increasing stiffness were applied perpendicular to the midplantar surface in the sciatic nerve distribution areas of the left hindpaw and were slowly depressed (4-6 seconds) until bending occurred. The filament application order and number of trials were determined by the up-down method of Dixon (Chaplan, et al., J. Neurosci. Methods, (1994) 53:55-63). Flinching and licking of the paw and paw withdrawal on the ligated side were all considered positive responses. The 50% paw withdrawal threshold (g) was then calculated and compared to control. The doses for the acute and chronic studies were selected on the basis of prior assessment of the acute effects on the test compounds on the gross behavior in normal rats. Briefly, the rats were weighed and grouped into cages, dosed with the test compound, and observed continuously for changes in behavior. […] Pinna and corneal reflexes were tested by using a piece of natural hair from a brush that is attached to a glass rod. The righting reflexes were tested by placing the rat flat on its back, and recording the time it takes for the animal to right itself onto all four legs. The posture and gait were assessed by placing the rat on the floor.

[5] = tested on: voltage-gated sodium channels ([3H]BTX binding, rat heart); experiment: [3H]BTX binding assay, rat heart membranes
Experimental: as §1, §2, §3

[6] = tested on: [3H]STX binding site on the rat brain sodium channel; experiment: [3H]STX binding assay
Experimental: as §1, §2
Membranes as prepared in Example 10A above were incubated at 37° C. for 30 minutes in 250 μl of a Hepes buffer (50 mM Hepes, 130 mM choline chloride, 5.5 mM glucose, 0.8 mM MgSO4, 5.4 mM KCl, pH 7.4 at 37° C.) containing 1 nM [^3 H]STX. Nonspecific binding was defined with 1 μM tetrodotoxin (TTX). […] The filters were rinsed with 3×1 ml ice cold H2 O and the bound radioactivity determined in a Packard 1900 liquid scintillation counter using Aquasol scintillation fluid.

[7] = Metabolism to Formula II / plasma levels of Formula II after oral administration; assay type: in vivo
[8] = tested on: rat brain type IIA sodium channel; experiment: [14C]Guanidinium ion influx assay, rat brain type IIA sodium channel in CHO cells; assay type: cell-based
Experimental: as §4

[9] = mechanical allodynia, subcutaneous

| SMILES | inhibition of [3H]PD85639 binding to the local anesthetic site [1] | inhibition of [3H]BTX binding [2] | inhibition of veratridine-stimulated [14C]Guanidinium ion influx [3] | activity in standard assays compared with close analogues (neuropathic pain models) | ED50 ([4]; Rattus norvegicus, sc, mechanical allodynia, subcutaneous) | EDmax [4, 9] | maximal analgesic activity (Emax) [4, 9] | potency (ED50) comparison ([4]; mechanical allodynia, subcutaneous, in words) | inhibition of [3H]BTX binding [5] | affinity for the [3H]STX binding site [6] | metabolism to the compound of Formula II ([7]; oral, mammal) | inhibition of veratridine-stimulated [14C]Guanidinium ion influx [8] | maximal analgesic activity, comparison ([4]; mechanical allodynia, subcutaneous, vs racemates of I, II and III) | analgesia against mechanical allodynia ([4]; oral administration) | plasma level of Formula II after oral (R)-enantiomer of Formula I, less than after acute administration of Formula II itself ([7]; oral administration, plasma) |
| --- | --- | --- | --- | --- | --- | --- | --- | --- | --- | --- | --- | --- | --- | --- | --- |
| CCNC(C)COc1c(C)cccc1C (racemic) [Formula I racemate, [2-(2,6-dimethylphenoxy)-1-methylethyl]-ethylamine] | inhibited | inhibited | inhibited | unexpectedly more active | 12.6 mg/kg | 66% | 66% | considerably more potent (ED50) than II or III | inhibited | no detectable affinity | metabolized to some extent to the compound of Formula II | inhibited | – | – | – |
| CCN[C@H](C)COc1c(C)cccc1C [Formula I (R)-, (R)-[2-(2,6-dimethylphenoxy)-1-methylethyl]-ethylamine] | – | – | – | – | – | – | 98% | – | – | – | – | – | significantly greater maximal analgesic activity | did not produce analgesia | 5-10 fold less |
